Laboratory results as given in patent US20150225369A1, “DDR2 INHIBITORS FOR THE TREATMENT OF OSTEOARTHRITIS” (Merck Patent GmbH, priority 2012, published 2015).

What was measured:
[1] = tested on: proMMP13 production by SW1353 cells; assay: Production of MMP13 (proMMP13 ELISA) by SW1353 cells upon stimulation with collagen type II; type: cell-based; conditions: Homo sapiens, SW1353, 72 h, read-out: IC50 [pro-MMP13]
Method: The binding of Collagen type II to the DDR2 receptor of the SW1353 cells initiate a signalling cascade resulting in the increase of MMP13 expression. MMP13 is released in the culture medium in its pro-form, the proMMP13 which can be measured with an ELISA.
DDR2 inhibitors are evaluated for their ability to block this signalling cascade and therefore proMMP13 production upon collagen stimulation.
SW1353 cells (ATCC, HTB-94), conserved in liquid nitrogen, are thawed and cultivated at 1.6.10^6 cells in a T75 in RPMI1640 supplemented with 2 mM Glutamin, 1 mM Na-Pyruvate, 10% FCS, at 37° C., 5% CO2 for three days. SW1353 cells are then harvested with trypsin/EDTA and resuspended in RPMI1640 supplemented with 2 mM Glutamin, 1 mM Na-Pyruvate, 25 mM HEPES and 0.5% FCS (assay medium) and inoculated in a 96 well plate at 30 000 cells/well in 100 μL of the assay medium and further incubated 24 hours at 37°, 5% CO2 to enable cell adhesion. For stimulation of the DDR2 receptor, 50 μL of a collagen type II solution 160 μg/mL (final concentration in the well is 40 μg/mL) will be added in each well as well as 50 μL of the different dilutions of the inhibitors (MSCs) from 0.003 μM to 10 μM (final concentration in the plate). Each condition is performed in four-plicates. After three additional days of culture, the supernatant will be harvested for proMMP13 measurement.
The Different Controls Present on Each Plate are Composed of Assay Medium with: Positive control (with the reference compound): 40 μg/mL Collagen type II, 0.03 μM Dasatinib (reference compound) in 0.1% DMSO Negative control (no inhibition): 40 μg/mL Collagen type II and 0.1% DMSO Medium control (no stimulation): 0.005% Acetic acid and 0.1% DMSO All wells contains 0.1% DMSO and 0.005% acetic acid.
The solutions needed are: • Collagen type II is diluted at 2 mg/mL in 0.25% acetic acid. This stock solution can be stored at 4° C. for a week and is diluted 1/12.5 in the assay medium (to obtain 160 μg/mL in 0.02% acetic acid) before being used in the assay. • MSCs from 0.012 to 40 μM in assay medium with 0.4% DMSO (they are then further diluted ¼ in the assay plate) • Dasatinib 0.12 μM in assay medium with 0.4% DMSO (it is then further diluted ¼ in the assay plate) • Acetic acid 0.02% in assay medium (control).
The harvested supernatants are either directly used or stored at −20° C. until use. ProMMP13 is measured with a commercial ELISA kit, according the recommendation of the manufacturer (see Annex). Briefly, 50 μL of each samples are used undiluted and the standard curve is realised in the assay medium. At the end of the assay the ELISA plate is read on a Paradigm MTP-Reader (Beckman Coulter) at 540 (reference wavelength) and 450 nm. All the absorbance values obtained at 450 nm are corrected with the absorbance at 540 nm and a ‘Four Parameter Fit’ is used to establish the standard curve. From the standard curve the concentrations of proMMP13 in all the samples are calculated. All the calculations are realised by the Paradigm software.
The data reported in the database are the % effect of the compounds at the two highest concentrations (10 and 3 μM) as well as the IC50.
% effect at the two highest concentrations is calculated according to the formula: […]
The IC50s are calculated with the software Graph Pad Prism (see tables in Example 1).

[2] = molecular target: T1, His-tagged human recombinant DDR-2 kinase domain (His-TEV-DDR2 467-855 aa) (Homo sapiens, UniProt Q16832); assay: Autophosphorylation assay for biochemical activity testing of DDR2 (HTRF)
T1 construct: His-TEV-DDR2 467-855 aa
T1 sequence (Q16832 467-855): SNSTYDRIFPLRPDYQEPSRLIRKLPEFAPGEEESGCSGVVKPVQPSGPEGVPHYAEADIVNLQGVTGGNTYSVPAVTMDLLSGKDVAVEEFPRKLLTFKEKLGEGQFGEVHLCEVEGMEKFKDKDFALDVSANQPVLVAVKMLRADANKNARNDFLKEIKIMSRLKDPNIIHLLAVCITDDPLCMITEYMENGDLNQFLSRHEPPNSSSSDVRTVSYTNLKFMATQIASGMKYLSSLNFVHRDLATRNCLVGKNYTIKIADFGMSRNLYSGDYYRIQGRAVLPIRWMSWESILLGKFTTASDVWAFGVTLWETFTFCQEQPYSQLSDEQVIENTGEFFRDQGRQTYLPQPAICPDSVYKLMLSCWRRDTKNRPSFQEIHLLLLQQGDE
Method in brief: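 Phospho-tyrosine was detected by HTRF between XL665 anti-6His and cryptate anti-phosphotyrosine PT66 antibodies, using the emission ratio. Inhibition was referenced to the inhibitor-free reaction.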

[3] = tested on: CAR-induced swelling and thermal hyperalgesia; assay: Anti-hyperalgesic effect in animals (carrageenan injected into rat knee joint; swelling, Hargreaves test); type: in vivo; conditions: intra-articular administration 30 minutes before CAR, TAC 10 μg/joint
Method: In order to induce an inflammation reaction, a carrageenan solution (CAR, 1%, 50 μl) was injected intra-articularly on one side into a rat knee joint. The uninjected side was used for control purposes. Six animals per group were used. The […] was determined by means of a micrometer screw (medial-lateral on the knee joint), and the thermal hyperalgesia was determined by means of a directed infrared light source by the Hargreaves method (Hargreaves et al., 1988) on the sole of the foot. Since the site of inflammation (knee joint) is different from the site of measurement (paw sole), use is made here of the term secondary thermal hyperalgesia, the mechanism of which is of importance for the discovery of effective analgesics.
Experimental description of thermal hyperalgesia (Hargreaves test): the experimental animal is placed in a plastic chamber on a quartz sheet. Before testing, the experimental animal is firstly given about 5-15 minutes time to familiarise itself with the environment. […] Light reflected by the paw is recorded as long as the experimental animal sits still. Withdrawal of the paw interrupts this reflection, after which the infrared light source is switched off and the time from switching on to switching off is recorded. […]

[4] = molecular target: T2, HEK293 transfected with human DDR2 (Homo sapiens, UniProt Q16832); assay: Phospho-DDR2 cellular assay (collagen II induced DDR2 phosphorylation, ELISA); type: cell-based; conditions: cellular phospho-DDR2; read-out: IC50 [p-DDR2]
T2 construct: expressed in transfected cells; host or cells: HEK293 (PLT460F_(DDR2)-P7-1)
T2 sequence (Q16832 22-855): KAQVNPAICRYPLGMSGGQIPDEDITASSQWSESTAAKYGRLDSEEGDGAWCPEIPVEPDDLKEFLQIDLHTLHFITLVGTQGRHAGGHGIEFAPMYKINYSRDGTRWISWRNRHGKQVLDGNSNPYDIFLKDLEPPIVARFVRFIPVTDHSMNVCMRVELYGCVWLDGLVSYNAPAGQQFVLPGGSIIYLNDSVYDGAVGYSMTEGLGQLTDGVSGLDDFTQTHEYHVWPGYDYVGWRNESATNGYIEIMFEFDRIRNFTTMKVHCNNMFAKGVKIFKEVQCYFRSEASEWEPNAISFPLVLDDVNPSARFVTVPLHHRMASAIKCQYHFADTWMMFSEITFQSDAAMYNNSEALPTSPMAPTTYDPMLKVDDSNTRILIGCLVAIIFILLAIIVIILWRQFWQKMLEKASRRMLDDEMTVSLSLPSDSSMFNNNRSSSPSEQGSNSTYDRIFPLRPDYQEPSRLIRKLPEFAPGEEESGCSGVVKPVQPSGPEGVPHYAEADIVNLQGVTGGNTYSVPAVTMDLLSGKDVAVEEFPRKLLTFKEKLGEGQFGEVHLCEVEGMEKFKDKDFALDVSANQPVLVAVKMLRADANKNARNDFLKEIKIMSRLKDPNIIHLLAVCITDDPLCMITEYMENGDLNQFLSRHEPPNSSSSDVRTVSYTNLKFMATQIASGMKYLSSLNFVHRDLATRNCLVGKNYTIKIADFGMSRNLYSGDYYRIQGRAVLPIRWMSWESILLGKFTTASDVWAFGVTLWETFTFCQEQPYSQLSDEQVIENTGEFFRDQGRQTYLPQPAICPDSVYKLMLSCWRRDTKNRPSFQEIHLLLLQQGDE
Method in brief: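 Cells seeded 48 h in 10% FBS, serum-starved 8 h, then given compound (5% DMSO) with 50 μg/ml chicken collagen II for 16 h at 37 °C. Lysates captured on anti-DDR2 antibody plates; phospho-DDR2 detected with HRP anti-phosphotyrosine antibody by chemiluminescence.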

CNC(=O)c1cc(Oc2ccc(CNC(=O)Nc3cc(Cl)cnc3Cl)cc2)ccn1 [compound 8]
IC50 [1]: 278 nM | IC50 ([2]; 4 nM DDR2 kinase domain, 150 μM ATP, 150 min at 22° C.): 130 nM

C[C@]12C=CC(=O)C=C1CC[C@H]1[C@@H]3C[C@@H](O)[C@](O)(C(=O)CO)[C@@]3(C)C[C@H](O)[C@@]12F [TAC, Triamcinolone]
CAR-induced swelling [3]: capable of reducing the CAR-induced swelling

CNCCOc1cc(Cl)c(C(F)(F)F)cc1NC(=O)NCc1ccc(Oc2ccnc(C(=O)NC)c2)cc1 [compound 127, 4-(4-{3-[4-Chloro-2-(2-methylamino-ethoxy)-5-trifluoromethyl-phenyl]-ureidomethyl}-phenoxy)-pyridine-2-carboxylic acid methylamide]
IC50 [4]: 34 nM | IC50 ([2]; biochemical DDR2 autophosphorylation): 47 nM
